Results on 18 compounds are retold here after patent US7411064B2, “1-Heterocyclylalkyl-3-sulfonylazaindole or -azaindazole derivatives as 5-hydroxytryptamine-6 ligands” (Wyeth, priority 2002, dated 2008).

Data set [1] deals with human cloned 5-HT6 receptors (Homo sapiens, UniProt P50406).

The term melting point denotes the temperature of the solid-liquid transition. As a reminder, the Ki is a dissociation constant, usually derived from enzyme kinetics or from competition with a known ligand. High values mean lower affinity, low ones higher affinity.

Structures can show the parent of a compound that is named as a salt.

Chain of human cloned 5-HT6 receptors (P50406 whole entry): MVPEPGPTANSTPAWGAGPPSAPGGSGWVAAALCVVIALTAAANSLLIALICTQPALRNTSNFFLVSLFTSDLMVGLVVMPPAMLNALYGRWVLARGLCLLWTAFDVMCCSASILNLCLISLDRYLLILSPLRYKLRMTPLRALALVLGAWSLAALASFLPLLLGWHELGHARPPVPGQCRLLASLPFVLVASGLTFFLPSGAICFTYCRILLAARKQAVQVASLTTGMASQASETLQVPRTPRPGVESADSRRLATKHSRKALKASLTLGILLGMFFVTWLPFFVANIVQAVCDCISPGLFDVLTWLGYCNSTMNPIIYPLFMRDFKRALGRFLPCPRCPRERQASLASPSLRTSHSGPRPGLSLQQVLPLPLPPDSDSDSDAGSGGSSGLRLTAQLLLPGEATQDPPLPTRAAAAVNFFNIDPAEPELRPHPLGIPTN

`O=S(=O)(c1ccccc1)c1cn(CC2CCCN2Cc2ccccc2)c2ncccc12` (stereo not shown) (as salt: hydrochloride) [Example 9] returned a melting point of 218 to 220 °C.
Compound `O=S(=O)(c1cccc(F)c1)c1cn(CC2CCCN2Cc2ccccc2)c2ncccc12` (stereo not shown) (as salt: hydrochloride) [Example 10] registered a melting point of 128 to 129 °C.
As to `O=S(=O)(c1cccc(F)c1)c1cn(CC2CCCN2)c2ncccc12` (stereo not shown) (as salt: hydrochloride) [Example 11], the melting point lay within 181 to 182 °C.
As for `CN1CCCC1Cn1cc(S(=O)(=O)c2cccc(F)c2)c2cccnc21` (stereo not shown) (as salt: hydrochloride) [Example 12], the melting point was 208 to 209 °C.
As to `O=S(=O)(c1cn(CC2CCCN2)c2ncccc12)c1c(Cl)nc2sccn12` (stereo not shown) (as salt: hydrochloride) [Example 14], the melting point lay within 246 to 247 °C.
For the compound `O=S(=O)(c1ccc(Cl)s1)c1cn(CC2CCCN2)c2ncccc12` (stereo not shown) (as salt: hydrochloride) [Example 15], the melting point lay in the range of 106 to 107 °C.
As for `O=S(=O)(c1ccccc1)c1cn(C[C@H]2CCCN2)c2ncccc12` [Example 3, 3-(Phenylsulfonyl)-1-[(2R)-pyrrolidin-2-ylmethyl]-1H-pyrrolo[2,3-b]pyridine Hydrochloride], in data set [1], the Ki came out at 12 nM.
Same read-out and setting: with `O=S(=O)(c1ccccc1)c1cn(C[C@@H]2CCCN2)c2ncccc12` [Example 4, 3-(Phenylsulfonyl)-1-[(2S)-pyrrolidin-2-ylmethyl]-1H-pyrrolo[2,3-b]pyridine Hydrochloride] the figure was 66 nM; with `O=S(=O)(c1cccc(Cl)c1)c1cn(CC2CCCN2Cc2ccccc2)c2ncccc12` (stereo not shown) [Example 6, 1-[(1-Benzylpyrrolidin-2-yl)methyl]-3-(3-chlorophenylsulfonyl)-1H-pyrrolo[2,3-b]pyridine], 132 nM.
Regarding `O=S(=O)(c1cccc(Cl)c1)c1cn(CC2CCCN2)c2ncccc12` (stereo not shown) [Example 7, 3-(3-Chlorophenylsulfonyl)-1-(pyrrolidin-2-ylmethyl)-1H-pyrrolo[2,3-b]pyridine], the Ki in data set [1] is 3 nM.
Turning to `CN1CCCC1Cn1cc(S(=O)(=O)c2cccc(Cl)c2)c2cccnc21` (stereo not shown) [Example 8, 3-(3-Chlorophenylsulfonyl)-1-[(1-methylpyrrolidin-2-yl)methyl]-1H-pyrrolo[2,3-b]pyridine Hydrochloride], in data set [1], the Ki is 7 nM.
In data set [1], `O=S(=O)(c1ccccc1)c1cn(CC2CCCN2Cc2ccccc2)c2ncccc12` (stereo not shown) [Example 9] gave a Ki of 163 nM.
`O=S(=O)(c1cccc(F)c1)c1cn(CC2CCCN2Cc2ccccc2)c2ncccc12` (stereo not shown) [Example 10]: the Ki in data set [1] amounted to 174 nM.
`O=S(=O)(c1cccc(F)c1)c1cn(CC2CCCN2)c2ncccc12` (stereo not shown) [Example 11] displayed a Ki in data set [1] of 9 nM.
Compound `CN1CCCC1Cn1cc(S(=O)(=O)c2cccc(F)c2)c2cccnc21` (stereo not shown) [Example 12] returned a Ki in data set [1] of 6 nM. Compared with the last compound, the Ki is about 1.5-fold lower.
In turn, `O=S(=O)(c1cn(CC2CCCN2Cc2ccccc2)c2ncccc12)c1c(Cl)nc2sccn12` (stereo not shown) [Example 13] returned a melting point of 102 to 103 °C. The compound further displayed a Ki in data set [1] of 57 nM.
Compound `O=S(=O)(c1cn(CC2CCCN2)c2ncccc12)c1c(Cl)nc2sccn12` (stereo not shown) [Example 14] had a Ki in data set [1] of 2 nM.
In the case of `O=S(=O)(c1ccc(Cl)s1)c1cn(CC2CCCN2)c2ncccc12` (stereo not shown) [Example 15], the Ki in data set [1] is 7 nM.
